Assay results from patent US20150157742A1, “[…] OF BIOLOGICAL COMPOUNDS LABELED WITH THE ALPHA EMITTER Ac-225” (priority 2013, published 2015).

Test system: K422 lymphoma cells
Experiment: Saturation binding assay (Scatchard analysis) on K422 lymphoma cells
Settings: Scatchard analysis (FIG. 3), read-out: binding affinity
Description: Vos: “In vitro and in vivo evaluation of direct rhenium-188-labeled anti-CD52 monoclonal antibody alemtuzumab for radioimmunotherapy of B-cell chronic lymphocytic leukemia.” (Nuclear Medicine and Biology 35 (2008) 599-604)].

Ac-225-DOTA-rituximab
Kd: 30 nM
